Test systems include 786-0 renal; DU-145 prostate; HL-60(TB) leukemia; HS 578T breast; MALME-3M melanoma; OVCAR-3 ovarian; SF-268 CNS; SF-295 CNS; SK-MEL-5 melanoma; DLD-1 colon; DMS 114 small cell lung; DMS 273 small cell lung; HOP-18 NSCLC; KM20L2 colon; LXFL 529 NSCLC; M19-MEL melanoma; SNB-78 CNS; XF 498 CNS.
Holding throughout (experiment): NCI-60 cell line screen, 48 h

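Five concentrations, 48 hours, 96-well plates. GI50 marks 50% less growth. TGI marks complete inhibition of growth.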

On to `O=C1C=CC(=O)c2c(O)c(Br)c(Br)c(O)c21`, for which the TGI in the assay on 786-0 renal was found to be 3.32 µM; in the assay with DU-145 prostate it was 25.9 µM; with HL-60(TB) leukemia it was 2.21 µM; in the assay with HS 578T breast, 69.1 µM; in the assay with MALME-3M melanoma, 2.54 µM; in the assay on OVCAR-3 ovarian, 15.8 µM. Also, the TGI with SF-268 CNS amounted to 38.3 µM; in the assay with SF-295 CNS, 36.9 µM; in the assay with SK-MEL-5 melanoma, 27.2 µM.

Regarding `COc1cc(C(=O)CC2OC(=O)C(Cl)=C2Cl)ccc1Cl` (stereo not given), the TGI with DLD-1 colon, in the assay on DMS 114 small cell lung, in the assay with DMS 273 small cell lung, in the assay with HL-60(TB) leukemia, with HOP-18 NSCLC and in the assay with KM20L2 colon was more than 100 µM in each case. In addition, the TGI in the assay on LXFL 529 NSCLC, with M19-MEL melanoma, with MALME-3M melanoma, in the assay with OVCAR-3 ovarian, in the assay on SF-268 CNS and with SF-295 CNS was more than 100 µM each time. The TGI with SK-MEL-5 melanoma, in the assay on SNB-78 CNS and in the assay with XF 498 CNS was more than 100 µM throughout.

Turning to `O=C1c2ccccc2C(=O)c2c(Nc3cc4c5c(ccc6c7ccc8c9c(cc(Nc%10cccc%11c%10C(=O)c%10ccccc%10C%11=O)c(c3c56)c97)-c3ccccc3C8=O)C(=O)c3ccccc3-4)cccc21`, the TGI was more than 100 µM in the assay on 786-0 renal; more than 100 µM in the assay on DU-145 prostate; 61.1 µM in the assay on HS 578T breast; more than 100 µM in the assay on MALME-3M melanoma; more than 100 µM with OVCAR-3 ovarian; 75.2 µM in the assay on SF-268 CNS. Besides, the TGI in the assay on SF-295 CNS and in the assay with SK-MEL-5 melanoma was more than 100 µM each time.

On to `CO/N=C\c1cc(O)c(O)c(/C=N/OC)c1`, for which the TGI was more than 100 µM in the assay on DU-145 prostate; 99.3 µM with HL-60(TB) leukemia; 71.1 µM with HS 578T breast; more than 100 µM with MALME-3M melanoma; more than 100 µM in the assay on OVCAR-3 ovarian; more than 100 µM in the assay on SF-268 CNS. The TGI in the assay on SF-295 CNS and in the assay on SK-MEL-5 melanoma was more than 100 µM each time.

Take `Cc1nc2[nH]ncn2c(=O)c1CCCl`: the TGI in the assay with DU-145 prostate, in the assay with HL-60(TB) leukemia, in the assay on HS 578T breast, in the assay on MALME-3M melanoma, in the assay with SF-268 CNS and in the assay on SK-MEL-5 melanoma was more than 10 µM throughout.

As to `O=C(c1ccccc1)c1nc2ccc(Cl)cc2c2c1CCCO2`, the TGI with DMS 114 small cell lung, with DMS 273 small cell lung, in the assay on HOP-18 NSCLC, with KM20L2 colon, in the assay with LXFL 529 NSCLC and with M19-MEL melanoma was more than 100 µM in each case. Besides, the TGI in the assay with MALME-3M melanoma, with OVCAR-3 ovarian, with SF-268 CNS, in the assay on SF-295 CNS, with SNB-78 CNS and in the assay on XF 498 CNS was more than 100 µM in each case.

As to `N#C/C(=C\c1ccc(Br)cc1)n1nnc2cc(Cl)c(Cl)cc21`, in the assay on OVCAR-3 ovarian, the GI50 is 2.1 µM and the TGI worked out at 5.29 µM. For the same compound, in the assay with SF-268 CNS, the GI50 was 3.84 µM and the TGI was more than 100 µM.

Take `Clc1ccc(C[P+]2(c3ccccc3)CCCCC2)cc1`: the TGI with 786-0 renal was more than 100 µM; in the assay on DLD-1 colon it was more than 100 µM; in the assay on DMS 114 small cell lung, more than 100 µM; in the assay on DMS 273 small cell lung it was more than 100 µM; in the assay with HL-60(TB) leukemia, 93.9 µM; in the assay on HOP-18 NSCLC, more than 100 µM. In addition, the TGI in the assay on KM20L2 colon, in the assay on LXFL 529 NSCLC, in the assay on M19-MEL melanoma, in the assay on MALME-3M melanoma, in the assay with OVCAR-3 ovarian and with SF-295 CNS was more than 100 µM in each case. Moreover, the TGI was 43.3 µM with SK-MEL-5 melanoma, more than 100 µM in the assay on SNB-78 CNS and 86.7 µM in the assay with XF 498 CNS.

On to `C[C@]12CC[C@@H]3c4ccc(O)cc4CC[C@H]3[C@@H]1CC[C@@H]2OC(=O)CCc1ccccc1`, for which the TGI in the assay with 786-0 renal was more than 100 µM; in the assay with DU-145 prostate, 43 µM; in the assay on HL-60(TB) leukemia, 43.9 µM; with HS 578T breast, 17.9 µM; in the assay with MALME-3M melanoma, 34.8 µM; with OVCAR-3 ovarian, 61.6 µM. The TGI in the assay on SF-268 CNS was 35.8 µM; with SF-295 CNS it was 42 µM; with SK-MEL-5 melanoma, 33.7 µM.

Regarding `O=C(c1ccccc1)C1C(c2ccccc2)N1S(=O)(=O)c1ccccc1` (stereo not given), the TGI in the assay with DU-145 prostate, in the assay on HS 578T breast, with MALME-3M melanoma, in the assay with OVCAR-3 ovarian, in the assay on SF-268 CNS and in the assay with SF-295 CNS was more than 100 µM in each case. In addition, the TGI in the assay on SK-MEL-5 melanoma is more than 100 µM.

As for `Cc1ccc(C2COc3cc(O)c(O)cc3C2)cc1` (stereo not given), the TGI in the assay on DLD-1 colon amounted to 105 µM; in the assay with DMS 114 small cell lung it was 37 µM; in the assay with DMS 273 small cell lung, 78.1 µM; with HL-60(TB) leukemia it was 8.27 µM; in the assay on HOP-18 NSCLC, 98.2 µM; in the assay with KM20L2 colon, 164 µM. Further, the TGI with M19-MEL melanoma is 66.1 µM; in the assay on MALME-3M melanoma, 48.9 µM; in the assay with OVCAR-3 ovarian, 23.1 µM; with SF-268 CNS, 49.3 µM; in the assay with SF-295 CNS, 134 µM; with SK-MEL-5 melanoma it was 105 µM. The TGI in the assay on SNB-78 CNS is 221 µM.

Turning to `CC1(C)N=C(N)N=C(N)N1c1cccc(C(=O)Nc2ccc(S(=O)(=O)F)cc2)c1`, the TGI in the assay with 786-0 renal, in the assay with DU-145 prostate, in the assay with HL-60(TB) leukemia, in the assay on HS 578T breast, in the assay with MALME-3M melanoma and in the assay on OVCAR-3 ovarian was more than 100 µM each time. Further, the TGI in the assay on SF-268 CNS, with SF-295 CNS and in the assay on SK-MEL-5 melanoma was more than 100 µM throughout.

Values taken from PubChem BioAssay (NCI).
